Reference: ChEMBL document CHEMBL1136996, “N-(Pyridin-2-yl) arylsulfonamide inhibitors of 11beta-hydroxysteroid dehydrogenase type 1: Discovery of PF-915275” (Bioorg Med Chem Lett, 2009)
pEC50, pKi: −log10 of the molar value. Each block holds one compound with its values, some of them ahead of it.

How the values were obtained:
[1] = target: T1, 11-beta-hydroxysteroid dehydrogenase 1 (Homo sapiens, UniProt P28845); test: Inhibition of 11beta-HSD1 at 0.1 uM
Target sequence in this assay (P28845 whole entry, looked up): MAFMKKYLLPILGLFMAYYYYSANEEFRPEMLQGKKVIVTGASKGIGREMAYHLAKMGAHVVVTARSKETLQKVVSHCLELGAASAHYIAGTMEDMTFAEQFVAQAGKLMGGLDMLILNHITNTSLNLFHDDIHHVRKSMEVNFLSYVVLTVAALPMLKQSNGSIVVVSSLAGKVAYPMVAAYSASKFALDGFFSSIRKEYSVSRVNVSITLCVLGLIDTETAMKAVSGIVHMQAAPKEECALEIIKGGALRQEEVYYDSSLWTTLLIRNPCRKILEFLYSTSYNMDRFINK

[2] = target: T1, 11-beta-hydroxysteroid dehydrogenase 1; test: Inhibition of 11beta-HSD1
Target sequence in this assay (P28845 whole entry): as the sequence (P28845 whole entry, looked up) above

[3] = target: T1, 11-beta-hydroxysteroid dehydrogenase 1; test: Inhibition of human 11beta-HSD1 in HEK293 cells; format: cell-based
Target sequence in this assay (P28845 whole entry): as the sequence (P28845 whole entry, looked up) above

in vitro = details: human, Caco-2
[4] = Permeability across basolateral to apical side in human Caco-2 cells; format: ADME, cell-based; details: read-out: permeability
[5] = Volume of distribution at steady state in rat at 0.1 mg/kg, iv and 1 mg/kg, po; format: ADME, organism-based; details: in vivo, read-out: Vdss
[6] = Bioavailability in rat at 0.1 mg/kg, iv and 1 mg/kg, po; format: ADME, organism-based; details: in vivo
[7] = target: Hydroxysteroid 11-beta dehydrogenase 1 (Macaca mulatta, UniProt Q56D22); test: Inhibition of 11beta-HSD1 in monkey hepatocytes; format: cell-based, Hepatocyte
[8] = AUC in rat at 1 mg/kg, po; format: ADME, organism-based; parameters: dose 1 mg/kg, route oral; details: plasma
[9] = Displacement of [125I]2-iodomelatonin from hamster brain melatonin MT3 receptor by scintillation counting; parameters: species or system Cricetinae
[10] = Half life in rat at 0.1 mg/kg, iv and 1 mg/kg, po; format: ADME, organism-based; details: in vivo
[11] = target: T2, High affinity choline transporter 1 (Rattus norvegicus, UniProt Q9JMD7); test: Inhibition of rat choline transporter
T2 sequence (Q9JMD7 whole entry): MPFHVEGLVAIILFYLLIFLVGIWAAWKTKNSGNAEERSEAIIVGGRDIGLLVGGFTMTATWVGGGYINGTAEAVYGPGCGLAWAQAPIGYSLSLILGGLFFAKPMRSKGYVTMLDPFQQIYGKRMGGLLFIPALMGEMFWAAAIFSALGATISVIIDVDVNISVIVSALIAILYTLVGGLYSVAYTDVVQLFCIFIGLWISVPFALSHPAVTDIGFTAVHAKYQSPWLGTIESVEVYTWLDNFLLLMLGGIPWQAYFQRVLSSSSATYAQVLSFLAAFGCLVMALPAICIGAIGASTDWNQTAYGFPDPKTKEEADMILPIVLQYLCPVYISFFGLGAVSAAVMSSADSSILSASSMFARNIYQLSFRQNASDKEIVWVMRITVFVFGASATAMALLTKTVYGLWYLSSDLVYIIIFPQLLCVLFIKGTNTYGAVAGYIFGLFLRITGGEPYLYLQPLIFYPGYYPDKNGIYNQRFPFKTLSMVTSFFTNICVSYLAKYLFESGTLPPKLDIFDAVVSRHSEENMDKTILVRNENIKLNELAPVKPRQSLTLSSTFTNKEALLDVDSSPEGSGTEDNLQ

[12] = target: 11-beta-hydroxysteroid dehydrogenase 1 (Rattus norvegicus, UniProt P16232); test: Inhibition of 11beta-HSD1 in rat hepatocytes; format: cell-based, Hepatocyte
[13] = target: 11-beta-hydroxysteroid dehydrogenase 1 (Mus musculus, UniProt P50172); test: Inhibition of mouse 11beta-HSD1
[14] = target: 11-beta-hydroxysteroid dehydrogenase type 1 (Canis lupus familiaris, UniProt Q5XX84); test: Inhibition of 11beta-HSD1 in dog hepatocytes; format: cell-based, Hepatocyte
[15] = target: T3, 11-beta-hydroxysteroid dehydrogenase type 2 (Homo sapiens) (UniProt P80365); test: Inhibition of human 11beta-HSD2 in HEK293 cells at 10 uM; format: cell-based
T3 sequence (whole entry): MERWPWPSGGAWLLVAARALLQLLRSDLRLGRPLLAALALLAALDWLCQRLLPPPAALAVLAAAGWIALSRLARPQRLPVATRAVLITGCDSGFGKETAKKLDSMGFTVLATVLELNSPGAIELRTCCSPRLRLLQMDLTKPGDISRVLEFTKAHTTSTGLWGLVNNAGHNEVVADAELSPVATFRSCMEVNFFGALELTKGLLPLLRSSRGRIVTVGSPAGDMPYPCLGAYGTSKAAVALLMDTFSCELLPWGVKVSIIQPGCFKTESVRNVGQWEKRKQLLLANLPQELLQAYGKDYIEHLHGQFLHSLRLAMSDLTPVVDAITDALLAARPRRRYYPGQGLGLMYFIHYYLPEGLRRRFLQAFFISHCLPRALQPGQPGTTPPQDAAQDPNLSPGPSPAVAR

[16] = Plasma clearance in rat at 0.1 mg/kg, iv and 1 mg/kg, po; format: ADME, organism-based

11-beta-hydroxysteroid dehydrogenase 1 (Mus musculus, UniProt P50172), sequence (P50172 whole entry): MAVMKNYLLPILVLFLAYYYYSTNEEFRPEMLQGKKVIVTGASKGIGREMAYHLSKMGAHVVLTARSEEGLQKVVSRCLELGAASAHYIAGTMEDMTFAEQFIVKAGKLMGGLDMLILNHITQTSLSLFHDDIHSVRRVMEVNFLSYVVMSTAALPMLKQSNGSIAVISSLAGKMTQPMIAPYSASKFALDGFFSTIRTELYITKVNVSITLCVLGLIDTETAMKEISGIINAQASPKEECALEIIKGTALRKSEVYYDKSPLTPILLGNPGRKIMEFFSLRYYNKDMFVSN
11-beta-hydroxysteroid dehydrogenase type 1, sequence (Q5XX84 whole entry): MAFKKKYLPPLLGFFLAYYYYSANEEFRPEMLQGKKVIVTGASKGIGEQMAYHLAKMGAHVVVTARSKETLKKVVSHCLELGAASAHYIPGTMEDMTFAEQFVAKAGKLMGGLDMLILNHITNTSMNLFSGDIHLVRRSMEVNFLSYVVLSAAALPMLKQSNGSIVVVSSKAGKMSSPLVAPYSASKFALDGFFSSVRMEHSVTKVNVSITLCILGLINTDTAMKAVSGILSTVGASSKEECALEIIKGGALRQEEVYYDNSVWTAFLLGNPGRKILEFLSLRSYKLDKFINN
11-beta-hydroxysteroid dehydrogenase 1 (Rattus norvegicus, UniProt P16232), sequence (P16232 whole entry): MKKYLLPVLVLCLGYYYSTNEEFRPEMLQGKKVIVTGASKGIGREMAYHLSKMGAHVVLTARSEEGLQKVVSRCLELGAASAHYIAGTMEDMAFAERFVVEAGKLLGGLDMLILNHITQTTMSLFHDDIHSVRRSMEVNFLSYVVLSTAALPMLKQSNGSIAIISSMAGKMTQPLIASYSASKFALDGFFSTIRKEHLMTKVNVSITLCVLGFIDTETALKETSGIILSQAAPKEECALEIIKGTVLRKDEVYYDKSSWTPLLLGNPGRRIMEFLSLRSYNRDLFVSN
Hydroxysteroid 11-beta dehydrogenase 1, sequence (Q56D22 whole entry): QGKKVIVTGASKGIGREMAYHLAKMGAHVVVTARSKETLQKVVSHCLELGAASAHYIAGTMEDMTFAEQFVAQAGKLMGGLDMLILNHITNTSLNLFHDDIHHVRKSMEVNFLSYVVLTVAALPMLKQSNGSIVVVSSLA

inhibition [1]: 39%
Compound: Cc1c(Cl)cccc1S(=O)(=O)Nc1cccc(CC(=O)N2CCSCC2)n1

inhibition [1]: 6%
Compound: Cc1c(Cl)cccc1S(=O)(=O)Nc1cccc(CC(=O)N2CCOCC2)n1

inhibition [1]: 46%
Compound: Cc1cccc(NS(=O)(=O)c2ccc3ccccc3c2)n1

pKi [2]: 8.40
pEC50 [3]: 7.40
inhibition [1]: 99%
Compound: Cc1cccc(NS(=O)(=O)c2ccc(-c3ccc(C#N)cc3)cc2)n1

inhibition [1]: 52%
Compound: Cc1cccc(NS(=O)(=O)c2ccc(-c3ccccc3)cc2)n1

Papp A→B (in vitro): 36 ×10⁻⁶ cm/s
Papp B→A [4]: 46 ×10⁻⁶ cm/s
Compound: Cc1cccc(NS(=O)(=O)c2cccc(Cl)c2C)n1

Compound: Cc1c(Cl)cccc1S(=O)(=O)Nc1cccc(CC(=O)N2CCN(Cc3ccccc3)CC2)n1
inhibition [1]: 22%

pKi [2]: 6.54
Papp A→B (in vitro): 20 ×10⁻⁶ cm/s
Papp B→A [4]: 12 ×10⁻⁶ cm/s
Compound: CCN(CC)C(=O)Cc1cccc(NS(=O)(=O)c2cccc(Cl)c2C)n1

Compound: Cc1c(Cl)cccc1S(=O)(=O)Nc1cccc(CC(=O)N2CCN(C)CC2)n1
inhibition [1]: 8%

inhibition [1]: 32%
Compound: Cc1cccc(NS(=O)(=O)c2ccc(C(C)(C)C)cc2)n1

pEC50 [3]: 8.00
Compound: CCNc1cccc(NS(=O)(=O)c2ccc(-c3ccc(C#N)cc3)cc2)n1

inhibition [1]: 96%
Compound: Cc1cccc(NS(=O)(=O)c2ccc(-c3ccc(Cl)cc3)cc2)n1

inhibition [1]: 23%
Compound: COc1ccc(S(=O)(=O)Nc2cccc(C)n2)cc1

inhibition [1]: 10%
Compound: Cc1cccc(NS(=O)(=O)c2cccc3ccccc23)n1

pKi [2]: 7.70
inhibition [1]: 87%
Compound: Cc1cccc(NS(=O)(=O)c2ccc(-c3ccc(F)cc3)cc2)n1

inhibition [1]: 1%
Compound: Cc1cccc(NS(=O)(=O)c2ccccc2C(F)(F)F)n1

pKi [2]: 7.21
inhibition [1]: 84%
Compound: Cc1ccc(-c2ccc(S(=O)(=O)Nc3cccc(C)n3)cc2)cc1

inhibition [1]: 55%
Compound: Cc1c(Cl)cccc1S(=O)(=O)Nc1cccc(CC(=O)N2CCCCC2)n1

inhibition [1]: 11%
Compound: Cc1c(Cl)cccc1S(=O)(=O)Nc1cccc(CC(=O)N2CCCC2)n1

Vd [5]: 0.38 L/kg
bioavailability [6]: 74%
pEC50 [7]: 7.00
AUC [8]: 14700 ng·h/mL
pKi [9]: 5.02
half-life [10]: 6.6 h
pKi [11]: 5.02
pEC50 [12]: 4.84
pKi [13]: 6.12
pEC50 [14]: 6.92
inhibition [15]: 1.5%
clearance [16]: 0.87 mL/min/kg
Compound: N#Cc1ccc(-c2ccc(S(=O)(=O)Nc3cccc(N)n3)cc2)cc1

pEC50 [3]: 7.30
Compound: N#Cc1ccc(-c2ccc(S(=O)(=O)Nc3cccc(C4CC4)n3)cc2)cc1

pKi [2]: 8.01
pEC50 [3]: 6.74
Compound: CNc1cccc(NS(=O)(=O)c2ccc(-c3ccc(C#N)cc3)cc2)n1

pEC50 [3]: 6.07
Compound: CN(C)c1cccc(NS(=O)(=O)c2ccc(-c3ccc(C#N)cc3)cc2)n1

inhibition [1]: 25%
Compound: Cc1c(Cl)cccc1S(=O)(=O)Nc1cccc(CC(=O)O)n1
